According to patent US8686178B2, “Derivative of 18β-glycyrrhetinic acid apt to suppress cancer cells” (Kaohsiung Medical University, priority 2011, dated 2014):

What was measured:
[1] = test system: human bladder cancer cell line NTUB1; test: Trial (A): cytotoxic effect, IC50 by median-effect analysis; type: cell-based; conditions: NTUB1 cells
Description: (§1) For the sake of proving therapeutic effects of the derivatives of 18β-glycyrrhetinic acid of the present invention, including 10, 11, 13-17 and 21-25, in treating of cancer, human bladder cancer cell line NTUB1, human prostate cancer cell line PC3 cataloged as CRL-1435 (reference to J. Formosan Med. Assoc. 1992; 91:608-13), and immortalized normal human urothelial cells SV-HUC1 cataloged as CRL-9520 are purchased from American Type Culture Collection (ATCC; Rockville, USA) and maintained in a culturing medium respectively till at a preferable density to carry out a serial of trials (comprising trial A to G) for evaluating cytotoxicities of the derivatives of 18β-glycyrrhetinic acid against cancer cells, and mechanisms thereof.
In the present invention, the NTUB1 and the PC3 is but not limit to be maintained in RPMI 1640 medium supplemented 10% fetal bovine serum (FBS), 100 unit/mL penicillin-G, 100 μg/mL streptomycin, and 2 mM L-glutamine, yet the SV-HUC1 is maintained in F12 medium supplemented with 10% fetal bovine serum (FBS), 100 unit/mL penicillin-G, 100 μg/mL streptomycin, and 2 mM L-glutamine, culturing at 37° C. in a humidified atmosphere containing 5% CO2 till at a density of 70% per well, followed by repeatedly suspending cells in each well with an ethylene diamine tetra-acetic acid buffer (EDTA buffer; Merck) and counting cell numbers.
In the present invention, the IC50 values of each group are presented as mean±standard deviation (SD).

[2] = test system: human prostate cancer cell line PC3; test: Trial (B): MTT cytotoxicity assay, 72 hours; type: cell-based; conditions: 0-50 μM
Description: as §1, with “thereof. […]” for “thereof.”
(§2) In trial (B), the cell lines of NTUB1, PC3, and SV-HUC1 are prepared in 96-well plates and co-incubated with the compounds 21, 23 or 25 in various concentrations of 0, 0.3, 1, 3, 5, 10, 30 and 50 μM, to analyze cytotoxic effects against either cancer cell or normal cells via a modified 3-[4,5-dimethylthiazol-2-yl]-2,5-diphenyltetrazolium bromide (MTT, Sigma Chemical Co.) assay. […] At co-incubation, 50 μL of MTT (2 mg/mL in PB) is added to each well to react for 3 hours, followed by centrifugating the 96-well plates at 1000 g for 10 min to remove supernatant, adding 150 μL DMSO in each well of the 96-well plates, and determining viability rates of the NTUB1, PC3, and SV-HUC1 cells separately by an absorbance spectrometry at 540 nm with a MRX (DYNEXCO) microplate reader.

[3] = test system: immortalized normal human urothelial cells SV-HUC1; test: Trial (B): MTT assay on normal cells, 72 hours; type: cell-based; conditions: 0-50 μM
Description: as §1, with “thereof. […]” for “thereof.”
as §2

NTUB1 cells = test: Trial (D): production of reactive oxygen species by flow cytometry (DCF); type: cell-based, human; conditions: 24 hours
Procedure: In trial (D), production of reactive oxygen species (ROS) is analyzed by flow cytometry, since the levels of ROS play an important role in apoptosis.
Referring to TABLE 4, the NTUB1 cells at a density of 8×10^5 cells/ml are prepared and assigned into 5 groups, including D1 to D5, to incubate in various medium for 24 hours. Next, 10 μM of 2,7-dichlorodihydrofluorescein diacetate (H2DCFHDA; Molecular Probes, Eugene, Oreg.) is added to the NTUB1 cells of each group 30 minutes prior than harvest, followed by collecting the NTUB1 cells of each group respectively and washing with PBS buffer. With such arrangement, the 2,7-dichlorodihydrofluorescein diacetate will penetrate into cells, interact with esterase, and degrade to 2,7-dichlorofluorescein (DCF) having green fluorescein, which can be determined by flow cytometer. In trial (D), green fluorescence of intracellular DCF in each group are analyzed immediately by FACScan flow cytometer (Becton Dickinson) at a wavelength of 525 nm.

p-p53 (Ser15) = test: Trial (G): expression of p53 / p-p53 by Western blot; type: cell-based, human; conditions: 10, 25, 50 μM, 24 hours, NTUB1
Procedure: In trial (G), expression of p53 is monitored via Western blot analysis in accordance with a journal article published by Son et al., at 2010 in Toxicol. Appl. Pharmacol., in which overproduction ROS induced p53 suppression is observed.
Referring to TABLE 7, the NTUB1 cells at a density of 8×10^5 cells/ml are prepared and assigned into 9 groups, including G1-1 to G1-5 and G2-1 to G2-4, to incubate in various medium for 24 hours, followed by harvesting in trypsinization, resuspending in PBS till at a suitable density and collecting the NTUB1 cells of each group respectively.
Next, the NTUB1 cells of each group are further diluted with equal volume of 2× sample buffer, boiled for 10 minutes twice to denature protein therein, and analyzed by SDS-PAGE. After that, proteins on SDS-PAGE datum are transferred to nitrocellulose membranes (Millipore, Billerica, Mass., USA) using a semi-dry blotter, followed by blocking with 5% (w/v) skimmed milk in TBST buffer (100 mM Tris-HCl (pH 7.5), 150 mM NaCl and 0.1% Tween-20), incubating with specific antibodies [including antibodies specific for b-acctin (NB600-501), p-p53 (Ser15) (9284) and p53 (DO1)]. at 4° C. overnight, washing with TBST buffer again and incubated with secondary antibody at room temperature. Finally, western data of each group are visualized on Fuji SuperRX film. […]

Structure (SMILES): C=C(C)[C@@H]1CC[C@]2(C)[C@H](C(=O)C=C3[C@@H]4C[C@@](C)(C(=O)NC(C)C)CC[C@]4(C)CC[C@]32C)[C@@]1(C)CCC(=O)NC(C)C [Compound 25, 3,4-seco-11-oxo-18β-olean-4(23),12-dien-3,30-diisopropyl carbamate]
- cytotoxic effect against cancer cell ([1]; with reference to TABLE 2): significantly suppress the growth of cancer cells with a lower concentrate
- IC50 ([1]; mean ± SD): 4.76 ± 1.15 µM
- cytotoxic effect (survival ratio, FIGS. 4-6) [2]: cytotoxic effects against to the cancer cells in a dose-dependent manner
- effect on growth of normal cells (survival ratio, FIGS. 4-6) [3]: enhance the growth of SV-HUC1 cells
- ROS (%) (NTUB1 cells; 10 μM): 66.1%
- ROS (%) (NTUB1 cells; 25 μM): 85.6%
- levels of p-p53 (Western blot, FIGS. 9, 10) (p-p53 (Ser15)): increase levels of p-p53 in a dose-dependent manner
